From patent US20100298375A1, “MEDICAMENT COMPRISING A CARBOSTYRIL DERIVATIVE AND DONEPEZIL FOR TREATING ALZHEIMER'S DISEASE” (priority 2007, published 2010)
Structures can show the parent of a compound that is named as a salt.

Tested on: women suffering from Alzheimer's disease
Assay: mini-mental state examination (MMSE) in patients with Alzheimer's disease
Type: in vivo
Experimental: To two women suffering from Alzheimer's disease (one was […] and the other was […]), donepezil hydrochloride (Aricept®) had been administered in a dose of 5 mg/day for 12 months and 9 months, respectively. […] At the beginning time of the experiment (0 month), the administration of cilostazol in a dose of 100 mg/day started as the combination with donepezil hydrochloride.

`COc1cc2c(cc1OC)C(=O)C(CC1CCN(Cc3ccccc3)CC1)C2` (stereo not drawn) [donepezil hydrochloride] was tested, and the “MMSE Score” value (Patient 1, at start of cilostazol, donepezil hydrochloride 5 mg/day alone until then) was 13, the “MMSE Score” value (Patient 1, −3 Ms, donepezil hydrochloride 5 mg/day alone) was 16 and the “MMSE Score” value (Patient 1, −6 Ms, donepezil hydrochloride 5 mg/day alone) was 17. For the same compound, the “MMSE Score” value (Patient 1, −9 Ms, donepezil hydrochloride 5 mg/day alone) was 17, the “MMSE Score” value (Patient 2, at start of cilostazol, donepezil hydrochloride 5 mg/day alone until then) was 6 and the “MMSE Score” value (Patient 2, −3 Ms, donepezil hydrochloride 5 mg/day alone) was 10. For the same compound, the “MMSE Score” value (Patient 2, −6 Ms, donepezil hydrochloride 5 mg/day alone) was 12, the “MMSE Score” value (Patient 2, −9 Ms, donepezil hydrochloride 5 mg/day alone) was 13 and the “MMSE Score” value (Patient 2, −12 Ms, donepezil hydrochloride 5 mg/day alone) was 16.
